Laboratory results published in ChEMBL document CHEMBL4414593, “Prenylated Acetophloroglucinol Dimers from Acronychia trifoliolata: Structure Elucidation and Total Synthesis” (J Nat Prod, 2019).

Columns and labels:
A549 = assay: Antiproliferative activity against human A549 cells assessed as reduction in cell viability after 72 hrs by SRB assay; assay type: functional, cell-based; conditions: A549, 72 h
KB = assay: Antiproliferative activity against human KB cells assessed as reduction in cell viability after 72 hrs by SRB assay; assay type: functional, cell-based
MDA-MB-231 = assay: Antiproliferative activity against triple-negative human MDA-MB-231 cells assessed as reduction in cell viability after 72 hrs by SRB assay; assay type: functional, cell-based; conditions: MDA-MB-231, 72 h
[1] = Antiproliferative activity against P-gp overexpressing human KBVIN cells assessed as reduction in cell viability after 72 hrs by SRB assay; assay type: functional

SMILES	IC50 (A549) [µM]	IC50 (KB) [µM]	IC50 (MDA-MB-231) [µM]	IC50 [1] [µM]
CC(=O)O[C@H]1C(=O)[C@@]2(C)[C@H]([C@H](OC(=O)c3ccccc3)[C@]3(O)C[C@H](OC(=O)[C@H](O)[C@@H](NC(=O)c4ccccc4)c4ccccc4)C(C)=C1C3(C)C)[C@]1(OC(C)=O)CO[C@@H]1C[C@@H]2O [PACLITAXEL]	0.0063	0.0074	0.0107	4.53
COc1c(CC=C(C)C)c(O)c(C(CC(C)C)c2c(O)c(CC=C(C)C)c(OC)c(C(C)=O)c2O)c(O)c1C(C)=O	> 10	7.6	> 10	8.4
COc1c(CC=C(C)C)c(O)c(Cc2c(O)cc(O)c(C(C)=O)c2O)c(O)c1C(C)=O	5.6	5.2	6.9	5.1
C=C(C)C(O)Cc1c(O)c(C(C)=O)c(O)c(C(CC(C)C)c2c(O)c(CC=C(C)C)c(OC)c(C(C)=O)c2O)c1O (racemic) [ACROVESTENOL]	> 10	6	10	6.5
COc1c(CC=C(C)C)c(O)c(Cc2c(O)c(CC=C(C)C)c(OC)c(C(C)=O)c2O)c(O)c1C(C)=O	6.4	5.5	5.9	5.5

Further lines, with some results ahead:

IC50 (A549) [µM]	IC50 (KB) [µM]	IC50 (MDA-MB-231) [µM]	SMILES	IC50 [1] [µM]
> 10	> 10	> 10	COc1c(CC=C(C)C)c(O)c(C(CC(C)C)c2c(O)c3c(c(C(C)=O)c2O)OC(C)(C)C(O)C3)c(O)c1C(C)=O (racemic)	> 10
> 10	> 10	> 10	COc1c(CC=C(C)C)c(O)c(C(CC(C)C)c2c(O)c(C(C)=O)c(O)c3c2OC(C)(C)C(O)C3)c(O)c1C(C)=O (racemic)	> 10
4.9	5.2	5.8	COc1c(CC=C(C)C)c(O)c(C(CC(C)C)c2c(O)cc(O)c(C(C)=O)c2O)c(O)c1C(C)=O (stereo not drawn)	5
> 10	> 10	> 10	COc1c(CC=C(C)C)c(O)c(C(CC(C)C)c2c(O)c3c(c(C(C)=O)c2O)OC(C(C)(C)O)C3)c(O)c1C(C)=O (racemic)	> 10
6.1	4.9	6.4	COc1c(CC=C(C)C)c(O)c(C(CC(C)C)c2c(O)c(CC=C(C)C)c(O)c(C(C)=O)c2O)c(O)c1C(C)=O (racemic)	4.4
> 10	> 10	> 10	COc1c(CC=C(C)C)c(O)c(C(CC(C)C)c2c(O)c(C=O)c(O)c(C(C)=O)c2O)c(O)c1C(C)=O (racemic)	> 10
5.9	4.9	5.4	COc1c(CC=C(C)C)c(O)c(C(CC(C)C)c2c(O)c3c(c(C(C)=O)c2O)OC(C)(C)C=C3)c(O)c1C(C)=O (racemic)	4.3
